In PubChem BioAssay (NCI):
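48-hour exposure; five concentrations; linearly interpolated endpoints. The concentration for full growth arrest is given as TGI.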

Columns and labels:
Experiment in all cases: NCI anticancer screen, dose series, 48 h
786-0 renal = test system: 786-0 renal
A498 renal = test system: A498 renal
A549 NSCLC = test system: A549 NSCLC
ACHN renal = test system: ACHN renal
DU-145 prostate = test system: DU-145 prostate
HCC-2998 colon = test system: HCC-2998 colon
HCT-15 colon = test system: HCT-15 colon
HL-60(TB) leukemia = test system: HL-60(TB) leukemia
HT29 colon = test system: HT29 colon
KM12 colon = test system: KM12 colon
M14 melanoma = test system: M14 melanoma
MALME-3M melanoma = test system: MALME-3M melanoma
MOLT-4 leukemia = test system: MOLT-4 leukemia
NCI-H23 lung = test system: NCI-H23 lung
NCI-H522 lung = test system: NCI-H522 lung
OVCAR-4 ovarian = test system: OVCAR-4 ovarian
OVCAR-8 ovarian = test system: OVCAR-8 ovarian
SF-295 CNS = test system: SF-295 CNS
UO-31 renal = test system: UO-31 renal
SNB-75 CNS = test system: SNB-75 CNS

SMILES	TGI (786-0 renal) [µM]	TGI (A498 renal) [µM]	TGI (A549 NSCLC) [µM]	TGI (ACHN renal) [µM]	TGI (DU-145 prostate) [µM]	TGI (HCC-2998 colon) [µM]	TGI (HCT-15 colon) [µM]	TGI (HL-60(TB) leukemia) [µM]	TGI (HT29 colon) [µM]	TGI (KM12 colon) [µM]	TGI (M14 melanoma) [µM]	TGI (MALME-3M melanoma) [µM]	TGI (MOLT-4 leukemia) [µM]	TGI (NCI-H23 lung) [µM]	TGI (NCI-H522 lung) [µM]	TGI (OVCAR-4 ovarian) [µM]	TGI (OVCAR-8 ovarian) [µM]	TGI (SF-295 CNS) [µM]	TGI (UO-31 renal) [µM]	TGI (SNB-75 CNS) [µM]
CSC1=Nc2ccccc2-c2nc3ccccc3cc2C1	> 100	> 100	> 100	> 100	> 100	> 100	> 100	> 100	> 100	> 100	> 100	> 100	> 100	> 100	> 100	> 100	> 100	> 100	> 100	
CC(C)(C)OCC1NC(=O)[C@@H]2Cc3c([nH]c4ccccc34)C(c3ccccc3)N2C1=O (stereo partly specified)	> 50	> 50	> 50	> 50	> 50	> 50	> 50	> 50	> 50	> 50	> 50	> 50	> 32.7	> 50	> 50	> 50	> 50	> 50	> 50	> 50
CC1CN=C(Nc2ccccc2)S1 (stereo unspecified)	> 100	> 100	> 100	> 100	> 100	> 100	> 100	> 100	> 100	> 100	> 100	> 100	> 100	> 100	> 100		> 100	> 100	> 100	> 100
O=C1c2ccccc2CN1c1ccc(OCCN2CCCCC2)cc1	> 10	> 10	> 10	> 10	> 10	> 10	> 10	> 10	> 10	> 10	> 10	> 10	> 10	> 10	> 10	> 10	> 10	> 10	> 10	> 10
Clc1nssc1=Nc1nonc1-c1ccccc1	> 100	> 100	> 100	36.1	53.5	> 100	> 100	34.9	52.2	96	37.2	99.2	69.8	76.6	43.4	> 100	> 100	> 100	36.3	64.2
O=S(=O)(c1ccccc1)C(c1ccc2ccccc2n1)S(=O)(=O)c1ccccc1	> 100	> 100	> 100	> 100	> 100	> 100	> 100	> 100	> 100	> 100		> 100	> 100	> 100	> 100	> 100	> 100	> 100	> 100	> 100
c1ccc(C2=NCCN2)c(C2=NCCN2)c1	> 100	> 100	> 100	> 100	> 100	> 100	> 100	> 100	> 100	> 100	> 100	> 100	> 100	> 100	> 100	> 100	> 100	> 100	> 100	> 100
CN1C/C(=C\c2cccs2)C2=NN(C)C(c3cccs3)C2C1 (stereo unspecified)	> 100	> 100	> 100	> 100	> 100	> 100	> 100	43.6	> 100	> 100	> 100	> 100	> 100	> 100	> 100	> 100	> 100	> 100	> 100	
COc1ccc(N2C(=O)[C@H]3[C@H]4CC(C(C)(C)C)CC[C@H]4c4c(n(C)c5ccccc45)[C@H]3C2=O)cc1 (stereo partly specified)	> 100	> 46.4	> 100	> 100	> 100	> 56.2	> 56.2	> 100	> 100	> 61.3	> 100	> 100	> 100	> 100	> 82.4	> 100	> 100	> 100	> 100	> 100
CC(C)(Oc1ccccc1)C(=O)Sc1c(-c2ccccc2)c(=O)n(-c2ccccc2)c(=S)n1-c1ccccc1	> 100	> 100	> 100	> 100	> 100	> 100	> 100	64.7	> 100	64.7	> 100	> 100	> 100	> 100	64.2	> 100	44.1	> 100	82.8	> 100
O=C(N/N=C/c1c(-c2ccccc2)no[n+]1[O-])N1CCOCC1	> 100	> 100	> 100	> 100	> 100	> 100	> 100	> 100	> 100	> 100	> 100	> 100	> 100	> 100	> 100	> 100	> 100	> 100	> 100	> 100
CN(C)CCCn1c(Cc2ccc(Cl)cc2)nc2cc(C(F)(F)F)ccc21	27	25.5	32.8	26	27.2	3.85	32.8	61.9	29.8	28.1	25.6	24	34.5	31.4	28.1	27.6	33.4	31.4	1	
O=c1c2cc(-c3ccccc3)sc2nc2n1N=C(c1ccc(Cl)cc1)CS2	> 100	> 100	> 100	> 100	> 100	> 100	> 100	> 100	> 100	> 100		> 100	> 100	> 100	> 100	> 100	> 100	> 100	> 100	> 100
CCO/C=N\c1c(C#N)c(-c2ccc(Cl)cc2)cn1-c1ccc(C)cc1	> 100	> 100	> 100	> 100	> 100	> 100	> 100	> 100	> 100		> 100	> 100		> 100	> 100	> 100	> 100	> 100	> 100	> 100
COc1ccc(/C=C2\CN(C)C/C(=C\c3ccc(OC)cc3)C2=O)cc1	> 100	> 100	> 100	> 100	> 100	> 100	> 100	> 100	> 100	> 100	> 100	> 100	> 100	> 100	> 100	> 100		> 100	> 100	> 100
Cc1c(S(=O)(=O)O)ccc(N=Nc2c(O)c(C(=O)O)cc3ccccc23)c1Cl	> 100	> 100	> 100	> 100	> 100	> 100	> 100	> 100	> 100	> 100	> 100	> 100	> 100	> 100	> 100	> 100	> 100	> 100	> 100	> 100
C=C1C(=O)O[C@@H]2[C@@H]3O[C@@H](C[C@@H]13)[C@](C)(O)CC/C=C(\C)CCC[C@@H]2C	18.9	26.2	34.3	21.2	29.6	32.7	33.4	10.4	> 100	43.1	27	26.8	> 100	28	20.1	29.6	22.2	44.7	23	26.1
CC1(C)CC2=C(Sc3ccccc3N2)C(=O)C1C(=O)C(=O)Nc1cccc([N+](=O)[O-])c1 (stereo unspecified)	> 100	> 100	> 100	> 100	> 100	> 100	> 100	> 100	> 100	> 100	> 100	> 100	> 100	> 100	> 100	> 100	> 100	> 100	> 100	> 100
CC1(C)CCc2c(c(N=Nc3ccc(S(N)(=O)=O)cc3)c3ccccc3c2O)O1	23.2	7.28	30.2	56.7	25	15.9	43.9	49.9	38.1	66.4	38.2	15.8	82.7	24.5	33.7	26	28.7	24	40.4	16.6
CC1C/C(=C\c2ccc(OC(=O)C(C)(C)C)cc2)C(=O)/C(=C/c2ccc(OC(=O)C(C)(C)C)cc2)C1 (stereo unspecified)	> 100	> 100	> 100	> 100	> 100	> 100	> 100	62.3	> 100	> 100	> 100	> 100	37.7	> 100	15.6	> 100	86.6	> 100		
CCOC(=O)CCC(NC(=O)c1ccc(Oc2nc3ccccc3nc2-c2ccccc2)cc1)C(=O)OCC (stereo unspecified)	> 28.7	> 100	> 100	> 66.9	> 100	> 100	> 100	> 100	10.7	> 100	> 100	33	> 100	> 61.3	40.2	65.6	16	> 60.7	> 100	26.2
O=C1c2ccccc2C(=O)N1CC1S(=O)(=O)OCCOS1(=O)=O	> 100	> 100	> 100	> 100	> 100	> 100	> 100	> 100	> 100		> 100	> 100	> 100	> 100	> 100	> 100	> 100	> 100	> 100	> 100
Oc1cc2c3c(c1)CCCN3CCC2	> 10	> 10	> 10	> 10	> 10	> 10	> 10	> 10	> 10	> 10	> 10	> 10	> 10	> 10	> 10	> 10	> 10	> 10		> 10
CC(O)c1cc2c(s1)C(=O)c1ccsc1C2=O (stereo unspecified)	2.83	2.95	0.373	0.267	0.0947	0.576	0.118	0.0791		1.2	0.241	0.0449	0.594	0.0304	0.381	0.533	1.01	0.18	0.413	0.166
